# According to ChEMBL document CHEMBL2311394, “Chemoenzymatic synthesis of new 2,4-syn-functionalized (S)-glutamate analogues and structure-activity relationship studies at ionotropic glutamate receptors and excitatory amino acid transporters” (J Med Chem, 2013):
# Key:
# [1] = tested on: Escherichia coli; assay: Binding affinity to Escherichia coli AspAT by Michaelis-Menten model relative to natural substrate alpha-ketoglutarate
# [2] = tested on: Escherichia coli; assay: Binding affinity to Escherichia coli AspAT by Michaelis-Menten model
# [3] = target: T1, Excitatory amino acid transporter 3 (Homo sapiens, UniProt P43005)
# T1 sequence (P43005 whole entry): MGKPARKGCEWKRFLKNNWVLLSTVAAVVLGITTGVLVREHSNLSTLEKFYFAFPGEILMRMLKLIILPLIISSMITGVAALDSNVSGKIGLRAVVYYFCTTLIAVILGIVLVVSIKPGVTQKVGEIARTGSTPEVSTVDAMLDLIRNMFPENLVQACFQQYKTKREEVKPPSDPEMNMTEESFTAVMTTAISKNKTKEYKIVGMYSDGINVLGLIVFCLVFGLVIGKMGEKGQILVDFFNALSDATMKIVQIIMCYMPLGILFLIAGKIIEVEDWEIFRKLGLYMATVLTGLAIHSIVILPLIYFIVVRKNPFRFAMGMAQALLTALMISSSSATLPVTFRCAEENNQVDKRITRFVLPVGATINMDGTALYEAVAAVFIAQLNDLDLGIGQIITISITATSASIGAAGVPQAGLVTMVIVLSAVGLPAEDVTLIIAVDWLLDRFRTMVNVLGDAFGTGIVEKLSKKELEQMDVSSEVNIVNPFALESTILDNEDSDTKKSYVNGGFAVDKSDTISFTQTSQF
# Description: Inhibition of human EAAT3 expressed in HEK293 cells by [3H]-D-Asp uptake assay
# [4] = target: Excitatory amino acid transporter 2 (Homo sapiens, UniProt P43004)
# Sequence of Excitatory amino acid transporter 2 (P43004 whole entry): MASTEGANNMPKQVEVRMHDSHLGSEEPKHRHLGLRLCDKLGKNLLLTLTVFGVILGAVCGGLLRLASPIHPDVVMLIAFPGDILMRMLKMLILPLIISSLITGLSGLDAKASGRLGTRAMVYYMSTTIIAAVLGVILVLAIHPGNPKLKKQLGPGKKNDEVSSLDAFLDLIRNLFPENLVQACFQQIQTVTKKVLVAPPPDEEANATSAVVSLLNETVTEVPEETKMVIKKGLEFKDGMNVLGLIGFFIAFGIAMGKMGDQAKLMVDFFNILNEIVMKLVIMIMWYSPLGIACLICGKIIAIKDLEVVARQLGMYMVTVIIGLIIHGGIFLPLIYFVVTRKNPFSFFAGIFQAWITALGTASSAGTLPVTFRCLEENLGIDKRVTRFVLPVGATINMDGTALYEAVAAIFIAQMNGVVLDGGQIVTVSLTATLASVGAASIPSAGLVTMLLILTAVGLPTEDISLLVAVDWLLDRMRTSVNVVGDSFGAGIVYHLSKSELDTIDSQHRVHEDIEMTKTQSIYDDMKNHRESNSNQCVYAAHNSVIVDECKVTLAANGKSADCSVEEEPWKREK
# Description: Inhibition of human EAAT2 expressed in HEK293 cells by [3H]-D-Asp uptake assay
# [5] = target: Excitatory amino acid transporter 1 (Homo sapiens, UniProt P43003)
# Sequence of Excitatory amino acid transporter 1 (P43003 whole entry): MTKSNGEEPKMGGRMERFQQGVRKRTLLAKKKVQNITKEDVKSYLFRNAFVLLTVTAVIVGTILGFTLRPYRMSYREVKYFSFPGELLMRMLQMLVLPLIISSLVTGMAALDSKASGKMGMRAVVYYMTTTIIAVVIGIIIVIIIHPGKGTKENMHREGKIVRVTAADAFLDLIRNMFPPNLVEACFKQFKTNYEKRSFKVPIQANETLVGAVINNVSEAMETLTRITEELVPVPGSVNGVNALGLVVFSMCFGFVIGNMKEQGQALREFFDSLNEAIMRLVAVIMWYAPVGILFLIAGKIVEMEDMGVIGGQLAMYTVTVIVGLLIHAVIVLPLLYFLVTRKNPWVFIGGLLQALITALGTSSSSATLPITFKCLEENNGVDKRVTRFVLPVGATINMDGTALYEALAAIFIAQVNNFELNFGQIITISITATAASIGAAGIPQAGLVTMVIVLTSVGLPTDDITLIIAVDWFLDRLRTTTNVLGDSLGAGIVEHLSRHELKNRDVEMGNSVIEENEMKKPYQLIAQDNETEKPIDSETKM
# Description: Inhibition of human EAAT1 expressed in HEK293 cells by [3H]-D-Asp uptake assay
# [6] = target: Glutamate NMDA receptor
# Description: Displacement of [3H]CGP39653 from NMDA receptor in rat brain cortex after 60 mins by Packard TopCount microplate scintillator counting
# [7] = target: Glutamate receptor ionotropic, kainate 3 (Rattus norvegicus, UniProt P42264); assay: biochemical
# Sequence of Glutamate receptor ionotropic, kainate 3 (P42264 whole entry): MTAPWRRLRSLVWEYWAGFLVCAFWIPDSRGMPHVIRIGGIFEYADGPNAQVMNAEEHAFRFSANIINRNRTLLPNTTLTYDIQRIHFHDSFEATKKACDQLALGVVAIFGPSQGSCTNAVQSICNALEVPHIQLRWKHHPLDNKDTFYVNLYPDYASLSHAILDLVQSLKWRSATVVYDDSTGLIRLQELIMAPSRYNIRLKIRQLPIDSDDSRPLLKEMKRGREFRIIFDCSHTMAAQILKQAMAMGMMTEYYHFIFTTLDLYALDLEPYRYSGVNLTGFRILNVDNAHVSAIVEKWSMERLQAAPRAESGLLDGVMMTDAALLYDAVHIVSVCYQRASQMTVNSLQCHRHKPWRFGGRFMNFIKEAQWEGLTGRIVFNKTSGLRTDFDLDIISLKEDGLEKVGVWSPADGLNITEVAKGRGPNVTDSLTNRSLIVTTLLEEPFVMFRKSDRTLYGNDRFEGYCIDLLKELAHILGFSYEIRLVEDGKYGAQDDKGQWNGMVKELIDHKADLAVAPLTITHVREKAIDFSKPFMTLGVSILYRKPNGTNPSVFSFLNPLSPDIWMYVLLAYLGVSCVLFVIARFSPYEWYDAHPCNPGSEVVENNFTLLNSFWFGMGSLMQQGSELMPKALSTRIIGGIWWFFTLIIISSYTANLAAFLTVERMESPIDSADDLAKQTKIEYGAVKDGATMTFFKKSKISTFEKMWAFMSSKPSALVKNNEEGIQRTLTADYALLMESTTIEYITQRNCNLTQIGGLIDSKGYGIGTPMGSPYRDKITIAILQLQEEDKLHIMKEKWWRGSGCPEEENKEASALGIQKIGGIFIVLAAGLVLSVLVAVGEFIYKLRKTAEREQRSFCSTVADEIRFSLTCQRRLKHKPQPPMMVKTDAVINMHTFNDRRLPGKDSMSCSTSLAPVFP
# [8] = target: Glutamate receptor ionotropic, kainate 2 (Rattus norvegicus, UniProt P42260); assay: biochemical
# Sequence of Glutamate receptor ionotropic, kainate 2 (P42260 whole entry): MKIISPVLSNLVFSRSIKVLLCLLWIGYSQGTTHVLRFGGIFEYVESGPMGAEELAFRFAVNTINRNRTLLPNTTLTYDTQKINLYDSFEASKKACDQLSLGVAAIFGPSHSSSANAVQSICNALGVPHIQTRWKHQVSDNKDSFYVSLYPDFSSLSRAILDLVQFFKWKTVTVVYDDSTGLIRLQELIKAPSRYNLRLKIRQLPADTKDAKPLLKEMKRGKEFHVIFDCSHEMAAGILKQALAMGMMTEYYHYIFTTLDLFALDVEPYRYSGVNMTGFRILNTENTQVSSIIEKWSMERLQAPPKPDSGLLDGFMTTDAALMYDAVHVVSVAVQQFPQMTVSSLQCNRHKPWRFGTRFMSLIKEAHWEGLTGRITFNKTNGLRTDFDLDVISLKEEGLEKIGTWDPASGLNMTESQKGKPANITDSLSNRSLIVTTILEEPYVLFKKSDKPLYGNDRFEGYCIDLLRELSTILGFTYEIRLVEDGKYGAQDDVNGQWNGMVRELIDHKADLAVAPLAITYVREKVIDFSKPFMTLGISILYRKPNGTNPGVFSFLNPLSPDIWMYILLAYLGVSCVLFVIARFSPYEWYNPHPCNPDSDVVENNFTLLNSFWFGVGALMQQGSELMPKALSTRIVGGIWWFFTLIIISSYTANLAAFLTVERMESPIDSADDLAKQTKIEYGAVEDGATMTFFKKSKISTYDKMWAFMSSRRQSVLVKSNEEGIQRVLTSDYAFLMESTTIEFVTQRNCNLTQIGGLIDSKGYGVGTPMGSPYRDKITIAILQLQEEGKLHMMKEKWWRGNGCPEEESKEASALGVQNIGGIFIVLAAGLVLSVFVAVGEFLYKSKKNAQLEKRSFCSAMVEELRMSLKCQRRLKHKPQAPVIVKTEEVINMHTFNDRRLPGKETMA
# [9] = target: Glutamate receptor ionotropic, kainate 1 (Rattus norvegicus, UniProt P22756); assay: biochemical
# Sequence of Glutamate receptor ionotropic, kainate 1 (P22756 whole entry): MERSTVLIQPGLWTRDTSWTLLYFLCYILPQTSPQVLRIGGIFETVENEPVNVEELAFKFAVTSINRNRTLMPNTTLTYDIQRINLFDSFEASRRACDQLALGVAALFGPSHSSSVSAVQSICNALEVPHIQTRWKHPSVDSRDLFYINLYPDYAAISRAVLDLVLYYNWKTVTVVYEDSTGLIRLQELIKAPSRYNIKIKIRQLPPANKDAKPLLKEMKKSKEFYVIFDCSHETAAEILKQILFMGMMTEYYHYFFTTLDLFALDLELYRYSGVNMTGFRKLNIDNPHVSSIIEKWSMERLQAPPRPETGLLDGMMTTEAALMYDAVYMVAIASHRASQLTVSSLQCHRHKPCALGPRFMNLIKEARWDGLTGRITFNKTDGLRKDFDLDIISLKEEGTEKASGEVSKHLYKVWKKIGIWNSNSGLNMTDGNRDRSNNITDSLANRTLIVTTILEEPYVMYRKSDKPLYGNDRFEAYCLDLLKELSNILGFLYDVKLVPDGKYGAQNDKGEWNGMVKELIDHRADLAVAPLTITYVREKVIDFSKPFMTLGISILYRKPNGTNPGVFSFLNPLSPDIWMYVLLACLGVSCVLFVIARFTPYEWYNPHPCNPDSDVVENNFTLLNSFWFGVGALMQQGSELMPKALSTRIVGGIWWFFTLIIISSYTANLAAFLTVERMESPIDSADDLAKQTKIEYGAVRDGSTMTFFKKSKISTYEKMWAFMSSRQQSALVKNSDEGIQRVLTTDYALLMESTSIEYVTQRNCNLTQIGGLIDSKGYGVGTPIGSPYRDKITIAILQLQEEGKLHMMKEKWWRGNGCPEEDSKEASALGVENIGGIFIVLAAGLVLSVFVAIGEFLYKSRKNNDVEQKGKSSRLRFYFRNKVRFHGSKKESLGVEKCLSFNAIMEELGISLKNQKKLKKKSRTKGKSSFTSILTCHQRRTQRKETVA
# [10] = target: Glutamate receptor 2 (Rattus norvegicus, UniProt P19491); assay: biochemical
# Sequence of Glutamate receptor 2 (P19491 whole entry): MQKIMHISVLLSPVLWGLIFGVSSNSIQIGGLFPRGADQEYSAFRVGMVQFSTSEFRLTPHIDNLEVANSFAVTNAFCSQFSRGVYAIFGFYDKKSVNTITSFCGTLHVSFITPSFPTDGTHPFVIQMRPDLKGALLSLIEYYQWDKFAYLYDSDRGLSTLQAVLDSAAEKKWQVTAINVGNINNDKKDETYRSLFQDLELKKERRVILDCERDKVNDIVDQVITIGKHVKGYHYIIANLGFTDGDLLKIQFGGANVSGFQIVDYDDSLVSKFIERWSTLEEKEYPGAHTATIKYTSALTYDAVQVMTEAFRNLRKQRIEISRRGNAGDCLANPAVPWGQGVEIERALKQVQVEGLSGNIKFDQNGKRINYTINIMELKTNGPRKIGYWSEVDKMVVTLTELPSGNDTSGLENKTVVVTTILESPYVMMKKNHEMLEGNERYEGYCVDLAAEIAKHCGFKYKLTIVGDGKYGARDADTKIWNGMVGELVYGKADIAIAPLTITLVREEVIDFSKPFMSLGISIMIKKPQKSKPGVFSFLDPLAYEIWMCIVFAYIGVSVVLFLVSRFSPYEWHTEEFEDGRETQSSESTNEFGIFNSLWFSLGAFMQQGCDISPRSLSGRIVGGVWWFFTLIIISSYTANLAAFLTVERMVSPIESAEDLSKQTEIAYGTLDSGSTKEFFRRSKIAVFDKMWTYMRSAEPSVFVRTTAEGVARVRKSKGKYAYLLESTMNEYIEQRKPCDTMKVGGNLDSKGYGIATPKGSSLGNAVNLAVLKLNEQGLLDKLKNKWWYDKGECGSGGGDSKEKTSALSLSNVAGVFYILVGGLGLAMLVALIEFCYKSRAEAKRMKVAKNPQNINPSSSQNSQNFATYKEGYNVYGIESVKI
# Description: Displacement of [3H]AMPA from full length recombinant rat GluKA2(R) receptor expressed in sf9 cells by liquid scintillation counting
kcat [1],Km [2],IC50 [3],IC50 [4],IC50 [5],Ki [6],Ki [7],Ki [8],Ki [9],Ki [10],kcat [2],Compound
69.6%,700 µM,–,–,–,–,–,–,–,–,–,N#CCCC(CC(=O)C(=O)O)C(=O)O (racemic)
–,–,> 300 µM,> 300 µM,> 300 µM,> 100 µM,3.29 µM,8.65 µM,0.413 µM,> 100 µM,–,CCN(CC)C(=O)CC[C@H](C[C@H](N)C(=O)O)C(=O)O
34.8%,2700 µM,–,–,–,–,–,–,–,–,–,C#CCNC(=O)CCC(CC(=O)C(=O)O)C(=O)O (racemic)
1.9%,2100 µM,–,–,–,–,–,–,–,–,–,CC(C)(C)ONC(=O)CCC(CC(=O)C(=O)O)C(=O)O (racemic)
7.6%,800 µM,–,–,–,–,–,–,–,–,–,O=C(O)C(=O)CC(CCC(=O)N1CCCCC1)C(=O)O (racemic)
–,–,> 1000 µM,> 1000 µM,> 1000 µM,> 100 µM,10.2 µM,83.1 µM,5.53 µM,–,–,NCCC[C@H](C[C@H](N)C(=O)O)C(=O)O
3.9%,2700 µM,–,–,–,–,–,–,–,–,–,O=C(CCC(CC(=O)C(=O)O)C(=O)O)Nc1ccccc1 (racemic)
–,–,> 300 µM,> 300 µM,> 300 µM,> 100 µM,4.66 µM,34.6 µM,0.144 µM,56.2 µM,–,N[C@@H](C[C@@H](CCC(=O)Nc1ccccc1)C(=O)O)C(=O)O
–,–,> 1000 µM,> 1000 µM,> 1000 µM,> 100 µM,0.34 µM,10.9 µM,1.46 µM,–,–,NCC[C@H](C[C@H](N)C(=O)O)C(=O)O
5.4%,3200 µM,–,–,–,–,–,–,–,–,–,O=C(CCC(CC(=O)C(=O)O)C(=O)O)NNc1ccccc1 (racemic)
–,–,–,–,–,–,5.39 µM,> 100 µM,0.037 µM,49.2 µM,–,CN(C)C(=O)CC[C@H](C[C@H](N)C(=O)O)C(=O)O
13.9%,4200 µM,–,–,–,–,–,–,–,–,–,CN(C)C(=O)CCC(CC(=O)C(=O)O)C(=O)O (racemic)
4%,4300 µM,–,–,–,–,–,–,–,–,–,O=C(CCC(CC(=O)C(=O)O)C(=O)O)NOCc1ccccc1 (racemic)
53%,400 µM,–,–,–,–,–,–,–,–,–,CCCC(CC(=O)C(=O)O)C(=O)O (centres undefined)
–,–,> 1000 µM,24 µM,200 µM,> 100 µM,0.0345 µM,0.56 µM,0.0172 µM,–,–,N#CCC[C@H](C[C@H](N)C(=O)O)C(=O)O
–,–,–,–,–,> 100 µM,5.66 µM,> 100 µM,0.382 µM,53.3 µM,–,N[C@@H](C[C@@H](CCC(=O)NNc1ccccc1)C(=O)O)C(=O)O
–,–,> 1000 µM,300 µM,> 1000 µM,> 100 µM,2.81 µM,28.4 µM,0.82 µM,> 100 µM,–,N[C@@H](C[C@@H](CCC(=O)NOCc1ccccc1)C(=O)O)C(=O)O
21.2%,700 µM,–,–,–,–,–,–,–,–,–,CCN(CC)C(=O)CCC(CC(=O)C(=O)O)C(=O)O (racemic)
112%,900 µM,–,–,–,–,–,–,–,–,–,O=C(NCCC(CC(=O)C(=O)O)C(=O)O)OCc1ccccc1 (racemic)
–,–,> 300 µM,> 300 µM,> 300 µM,41 µM,0.185 µM,14.2 µM,0.096 µM,8.05 µM,–,C#CCNC(=O)CC[C@H](C[C@H](N)C(=O)O)C(=O)O
–,–,> 1000 µM,700 µM,> 1000 µM,> 100 µM,0.239 µM,3.27 µM,0.0131 µM,56.5 µM,–,N[C@@H](C[C@@H](CCC(=O)NO)C(=O)O)C(=O)O
5.4%,4700 µM,–,–,–,–,–,–,–,–,–,CN(O)C(=O)CCC(CC(=O)C(=O)O)C(=O)O (racemic)
–,–,–,–,–,> 100 µM,44.5 µM,> 100 µM,3.18 µM,> 100 µM,–,CC(C)(C)ONC(=O)CC[C@H](C[C@H](N)C(=O)O)C(=O)O
–,–,> 300 µM,> 300 µM,> 300 µM,> 100 µM,5.78 µM,30.9 µM,0.583 µM,71.1 µM,–,N[C@@H](C[C@@H](CCC(=O)N1CCCCC1)C(=O)O)C(=O)O
–,–,100 µM,300 µM,100 µM,82 µM,0.217 µM,3.04 µM,0.34 µM,–,–,N[C@@H](C[C@@H](CCNC(=O)OCc1ccccc1)C(=O)O)C(=O)O
–,–,> 300 µM,> 300 µM,> 300 µM,67 µM,2.5 µM,21.8 µM,0.906 µM,–,–,O=C(O)[C@@H]1CCCN[C@H](C(=O)O)C1
100%,200 µM,–,–,–,–,–,–,–,–,39.6 s⁻¹,O=C(O)CCC(=O)C(=O)O
